These are literature values, as cited in patent publication US20120070472A1, “CHRONOTHERAPEUTIC COMPOSITIONS AND METHODS OF THEIR USE” (Circ Pharma Research & Development Limited, priority 2004, published 2012).

SMILES strings stand for the structures.

The conditions of one series: i/v.
With `COc1ccccc1OCCNCC(O)COc1cccc2[nH]c3ccccc3c12` (stereo not drawn) [Carvedilol], the “Elimination Half-Life” value is given as 2.4 h.

Staying with this series, now noted: in vivo.
For `NNc1nncc2ccccc12` [Hydralazine], the “Elimination Half-Life” value is 1.0 h.

For `O=C(NCCO[N+](=O)[O-])c1cccnc1` [Nicorandil], the “Elimination Half-Life” value is 1.1 h.

With `CCN(CC)CCNC(=O)c1ccc(NC(C)=O)cc1` [n-Acetylprocainamide], the “Elimination Half-Life” value was 6.0 h.

In the case of `C=CCc1ccccc1OCC(O)CNC(C)C` (stereo not drawn) [Alprenolol], the “Elimination Half-Life” value is 2.5 h.

As to `NS(=O)(=O)c1cc2c(cc1Cl)NCNS2(=O)=O` [Hydrochlorothiazide], the “Elimination Half-Life” value is given as 2.5 h.

Consider `C=CCOc1ccccc1OCC(O)CNC(C)C` (stereo not drawn) [Oxprenolol], for which the “Elimination Half-Life” value is reported as 2.5 h.

Turning to `COC(=O)C1=C(C)NC(C)=C(C(=O)OC(C)C)C1c1cccc2nonc12` (stereo not drawn) [Isradipine], the “Elimination Half-Life” value was 3.8 h.

On to `CC(C)NCC(O)COc1cccc2[nH]ccc12` (stereo not drawn) [Pindolol], for which the “Elimination Half-Life” value is recorded as 3.6 h.

Take `CC(C)NCC(O)COc1cccc2ccccc12` (stereo not drawn) [Propranolol]: the “Elimination Half-Life” value is on record as 3.9 h.

In the case of `COc1ccc([C@@H]2Sc3ccccc3N(CCN(C)C)C(=O)[C@@H]2OC(C)=O)cc1` [Diltiazem], the “Elimination Half-Life” value was 3.7 h.

As for `CC(=O)S[C@@H]1CC2=CC(=O)CC[C@]2(C)[C@H]2CC[C@@]3(C)[C@@H](CC[C@@]34CCC(=O)O4)[C@H]12` [Spironolactone], the “Elimination Half-Life” value was 1.6 h.

On to `CCCC(=O)Nc1ccc(OCC(O)CNC(C)C)c(C(C)=O)c1` (stereo not drawn) [Acebutolol], for which the “Elimination Half-Life” value is 2.7 h.

Turning to `CC(CCc1ccccc1)NCC(O)c1ccc(O)c(C(N)=O)c1` (stereo not drawn) [Labetalol], the “Elimination Half-Life” value was 4.9 h.

As for `CC(C)(C)NC[C@H](O)COc1nsnc1N1CCOCC1` [Timolol], the “Elimination Half-Life” value is reported as 4.1 h.

Regarding `CC(C)N(CCC(C(N)=O)(c1ccccc1)c1ccccn1)C(C)C` (stereo not drawn) [Disopyramide], the “Elimination Half-Life” value was 6.0 h.

On to `NS(=O)(=O)c1cc2c(cc1Cl)N=CNS2(=O)=O` [Chlorothiazide], for which the “Elimination Half-Life” value is reported as 1.5 h.

The same series, now with this note: po.
On to `COc1ccccc1OCCNCC(O)COc1cccc2[nH]c3ccccc3c12` (stereo not drawn) [Carvedilol], for which the “Elimination Half-Life” value was 6.4 h.
